From patent US7618953B2, “Amorphous forms of risedronate monosodium” (Zentiva, a.s., priority 2004, dated 2009)
Counter-ions that a name gives are not always drawn.

Columns and labels:
[1] = assay type: physicochemical; settings: for time until a transparent solution was formed: 0.796 mmol in 100 ml stirred aqueous hydrochloric acid, pH 1.1, 40° C.
Method: Dissolution of Sodium Risedronate in Diluted Hydrochloric Acid
a) 0.273 g (0.796 mmol) of sodium risedronate pentahemihydrate (crystalline form A) according to WO 01/56983, having the water content 12.5%, was introduced into 100 ml of stirred aqueous solution of hydrochloric acid at pH 1.1 and temperature of 40° C. Within 30 seconds a transparent solution was formed.
b) 0.250 g (0,796 mmol) of semi-crystalline sodium risedronate according to Example 2 above, having the water content 3%, was introduced into 100 ml of stirred aqueous solution of hydrochloric acid at pH 1.1 and temperature of 40° C. Within less than 30 seconds a quite transparent solution was formed.

[2] = 0.200 g suspended in 2 ml water at 22° C., water added dropwise at 0.2 ml/min until transparent solution
[3] = physchem; settings: 22 °C, water, thermodynamic from solid
[4] = Water content after storage on the open air; assay type: physicochemical; settings: after one month storage on the open air at laboratory temperature; 1.7% of water when prepared
Method: 10 g of crystalline form of risedronate pentahydrate (according to WO 2004/037252) was dried at 110° C. for 20 hours. 8.2 g of the semi-crystalline form of risedronate sodium was obtained, which was characterized with X-ray powder diffraction (FIG. 9), ^13C and ^31P Cp MAS NMR spectra (FIGS. 7 and 8) and IR spectra (FIG. 6). Thus prepared semi-crystalline risedronate contained 1.7% of water. After one month storage on the open air at laboratory temperature the content of water increased to 3%.

SMILES | time until a transparent solution was formed [1] | time after formation of the transparent solution until a white suspension of poorly soluble risedronic acid started to precipitate ([1]; pH 1.1) [s] | total consumption of water for dissolution of the sample [2] [mL] | solubility [3] [mM] | content of water after storage [4] [%] | precipitation on further stirring under constant conditions ([1]; aqueous hydrochloric acid pH 1.1, 40° C., stirred for further 15 mins)
O.O.O.O.O.O=P([O-])(O)C(O)(Cc1cccnc1)P(=O)(O)O.O=P([O-])(O)C(O)(Cc1cccnc1)P(=O)(O)O.[Na+].[Na+] [sodium risedronate pentahemihydrate, reference compound] | ≤ 30 s | ≤ 20 | 3.5 | – | – | –
O=P(O)(O)C(O)(Cc1cccnc1)P(=O)(O)O [Example 2, monosodium salt of 3-pyridyl-1-hydroxyethylidene-1,1-bisphosphonic acid] | less than 30 seconds | – | 2.5 | 255 | 3 | without any observable precipitation
